Experimental findings from patent US20220332876A1, “HYDROPHILIC-HYDROPHOBIC COPOLYMER CARRYING SHORT CHAIN FATTY ACID ESTER” (UNIVERSITY OF TSUKUBA, priority 2019, published 2022) are described below.

Series [1] is described as follows: Body weight in radiation enhancer Test Example 10. It counts as in vivo, C57BL/6J mice. The method, then:
Five or seven 5 to 7-week-old C57BL/6J mice per group obtained similarly as in the above test were bred under similar conditions. 0.076×10^6 melanoma B16F10 cells per 100 μL (serum free DMEM) were injected subcutaneously into the outer side of the right thigh of each of the mice (Day 9 before irradiation). […] The irradiation conditions were set to 10 Gy, 150 kV, 20 mA, Al+Cu (0.5 mm+0.1 mm) filtration, and 330 mm intervals.
(3) The data on body weight changes in the mice as mean SD values (n=7) are illustrated in FIG. 35. The t-test is the same as described above.

Series [2] in a line: Antidiabetic test (glucose resistance test, pancreatic histology). It counts as in vivo, C57BL/6J mice. As to conditions: for size of the islets of Langerhans: H & E stained pancreatic tissue; for glucose concentration in glucose resistance test: glucose 2 g/kg orally, [glucose]60 min−[glucose]0 min, compared with the diabetic model mice. The method, then:
(§1) Seven 7 to 8-week-old C57BL/6J mice (male) per group were obtained from Charles River Japan, Inc (Yokohama). These mice were bred while being freely fed with a standard solid feed at controlled temperature (23±1° C.) and humidity (50±5%) in a controlled temperature (23±1° C.) and humidity (50±5%) under non-pathogenic conditions in 12 hours dark/light cycles. The mice were randomly divided into the following administration groups of GP1 to GP6, and allowed to freely drink each sample described until Day 36. One day later, a glucose resistance test was performed. In the test, the body weight and sample consumption for each mouse were monitored every day. The sample was then replaced with drinking water until the end of the test (Day 40).
(2) The glucose resistance test was performed to evaluate the therapeutic effects of short chain fatty acids in controlling the metabolism of the administered glucose. Sixteen (16) hours after overnight constraint, glucose (2 g/kg) was orally administered to the mice. One hour before and after the glucose administration, 10 μL of blood was collected from the tail vein, and mixed with heparin-containing (50 units/mL) saline in a volume (v:v) ratio of 1:1. A glucose concentration in the diluted blood was measured by FUJI DRY-CHEM 7000V (FUJIFILM Corporation). A final blood glucose concentration was calculated by the following equation:
Final glucose concentration (mg/mL)=[glucose]60 min−[glucose]0 min
(§2) The organs of the mice taken out after dissection were fixed by immediately putting them in a 10% neutral formalin solution and immersing them therein for 1 day. Thereafter, the solution was replaced with a 70% ethanol solution for paraffin embedding. In accordance with a routine method, all the organs after the paraffin embedding were processed into tissue sections with a thickness of 5 μm, which were hematoxylin/eosin (HE) stained by a routine method. The tissue sections were dehydrated with high-concentration alcohol, washed with xylene, then fixed, and subjected to microscope examination (biorevo, BZ-9000, Keyence). A region of the islets of Langerhans was determined by ImageJ software (NIH). The results are illustrated in FIG. 30. […] The t-test is the same as described above.

The subject of the next series is melanoma B16F10 cells. The series can be described thus: Effect 2 as radiation enhancer (melanoma xenograft model). The settings on record: for tumor weight / tumor size at the end of the test: Day 6 after irradiation. It counts as in vivo, C57BL/6J mice. The method, then:
Five or seven 5 to 7-week-old C57BL/6J mice per group obtained similarly as in the above test were bred under similar conditions. 0.076×10^6 melanoma B16F10 cells per 100 μL (serum free DMEM) were injected subcutaneously into the outer side of the right thigh of each of the mice (Day 9 before irradiation). When the cancer volume reached from 350 to 560 mm^3, the mice were randomly divided into the following administration groups. The irradiation conditions were set to 10 Gy, 150 kV, 20 mA, Al+Cu (0.5 mm+0.1 mm) filtration, and 330 mm intervals.
The cancer volume was calculated in the same manner as described above.
GP4: Butyric acid (i.p.; 250 mg/kg) (6 hours before irradiation)+IR group (n=7)
GP5: Butyric acid (i.p.; 500 mg/kg) (24 hours before irradiation)+IR group (n=7)
GP6: BNP (i.p.: 500 mg/kg) (6 hours before irradiation)+IR group (n=7)
GP7: BNP (i.p.: 500 mg/kg) (12 hours before irradiation)+IR group (n=7)
(1) The data on cancer proliferation profiles by 5 Gy irradiation after butyric acid and NP administration in a melanoma xenograft model is illustrated in FIG. 33.
(2) The data on the cancer weight at the end of the test (Day 6 after irradiation) is illustrated in FIG. 32 as mean±SEM values (n=from 2 to 7). The t-test is the same as in Test 8 (5).

The conditions of series [3]: mouse, in vivo. As for the experimental part: as §1
These organs were stored in a 10% neutral buffer for further histological analysis. The Student's t-test is the same as described above.
as §2, with “All” for “In accordance with a routine method, all”, “alcohol and” for “alcohol,”, “followed by” for “then fixed, and subjected to”, “villus length” for “region of the islets of Langerhans”, “measured” for “determined”, “(NIH).” for “(NIH). The results are illustrated in FIG. 30.”

Series [4] is described as follows: Pharmacokinetic study (2): phenylbutyric acid monomer in plasma and liver by LC/MS. The format is in vivo, ICR mice. As to conditions: 200 mg/kg (1.22 mmol-4PBA/kg); blood and liver. As for the experimental part: Forty-five (45) 7-week-old ICR mice (male) were randomly divided into the following three groups. Doses for the administration groups 2GP and 3GP were determined so that the amount of phenylbutyric acid contained therein reached 200 mg/kg (1.22 mmol-4PBA/kg). After each sample is administered nearly simultaneously to all the mice, 1 mL of blood is taken by cardiac puncture, according to each endpoint (7 endpoints of 30 min, 1 h, 2 h, 4 h, 12 h, 16 h, 24 h), to separate plasma. The target organ, liver, was also taken out from each of the mice, and content of the phenyl butyric acid monomer was quantified by high performance liquid chromatography/mass spectrometry (LC/MS). The measurement results are illustrated in FIG. 43. In these figures, PBA was totally metabolized within 4 hours, whereas 4-Ph-BNP persistently released the phenylbutyric acid monomer in the blood and in the liver, and the release was not terminated even after 24 hours.
1GP: Saline (control, 3 mice) 2GP: 4-Phenylbutyric acid (7 endpoints (30 min, 1 h, 2 h, 4 h, 12 h, 16 h, and 24 h)×3 mice) 3GP: Ph-BNP (7 endpoints (30 min, 1 h, 2 h, 4 h, 12 h, 16 h, and 24 h)×3 mice)

Where only a bound is given, the exact number is not on record here.

Take `CCCC(=O)O` [butyric acid]: the “body weight change / toxicity” value in series [1] (i.p. before irradiation) is “body weight decrease is found”. Moreover, in series [2], the “size of the islets of Langerhans” value is on record as “reduced”. Besides, the “glucose concentration in glucose resistance test” value in series [2] is “no significant differences”. The “tumor proliferation suppressive effect (order of groups)” value in the series with melanoma B16F10 cells (i.p. 6 hours before 5 Gy irradiation) is “irradiation group <butyric acid (6 hours before) administration group”; in the series with melanoma B16F10 cells (i.p. 24 hours before 5 Gy irradiation), “BNP (6 hours before) administration group=butyric acid (24 hours before) administration group”. In addition, the “tumor weight / tumor size at the end of the test” value in the series on melanoma B16F10 cells (i.p. 6 hours before irradiation) and in the series on melanoma B16F10 cells (i.p. 24 hours before irradiation) was “significantly reduced” in each case. Also, the “villus length in the duodenum, jejunum, ileum, and large intestine” value (shortened to “villus length in the duodenum, jejunum”) in series [3] is reported as “same trend”.

On to `O=C(O)CCCc1ccccc1` [4-phenylbutyric acid], for which the “time until totally metabolized” value in series [4] was no more than 4 h.

As to “CH3O—(CH2CH2O)m—CH2PhCH2[CH2CH(OC(═O)CH2CH2CH3)]nS(═S)OCH2CH3 [N721]”, the “body weight change / toxicity” value in series [1] (mouse, in vivo, ip) is given as “does not have a body weight decrease”. In addition, the “villus length in the duodenum, jejunum” value in series [3] is given as “did not have a shortened villus length or damage to the digestive tract”.

For `CCC(=O)O` [propionic acid], in series [2], the “size of the islets of Langerhans” value is recorded as “reduced” and the “glucose concentration in glucose resistance test” value is reported as “no significant differences”. The “villus length in the duodenum, jejunum” value in series [3] is on record as “same trend”.
